# Where two headings read alike, the source gives them in different places.
# Assays:
# [1] = for % DECREASE of measured free copper: n = 2
# Protocol: The first experiment involved the addition of EDTA ([…]) [as EDTA +4 Na·2 H2O ] to 0.9% NaCl solutions containing CuSO4·5 H2O (0.1, 0.5, 2.5, or 10 mg L^−1 Cu). Free Cu was measured using the porphyrin method (range 0-210 μg L^−1 ) (HACH, Loveland Colo.). […] Each solution, with and without EDTA, was assayed for hemolytic activity.
# [2] = tested on: rainbow trout erythrocytes
# Protocol: The filtrate from water samples collected on Feb. […] Environmental water samples were allowed to thaw to room temperature and passed through a Sep-Pak Plus tC18 disposable cartridge (Waters Corp., Milford Mass.), attached to a vacuum manifold. The column was pre-equilibrated with methanol (20 ml) followed by H2O (20 ml). The cartridges were eluted with the following concentrations of MeOH/H2O: 100% H2O, 40%, 60%, 80%, and 100% MeOH (12 ml ea^−1). An aliquot of each elution was diluted, using Tris buffer +CaCl2, to give final dilutions ranging from 6 to 60% of original concentrations. […] The occurrence of hemolytic activity was determined by the absorbance of released hemoglobin, measured at 540 nm. Saponin (10 μg) served as a positive hemolysin control. Treatments were run in quadruplicate.
# A hemolytic assay based on the lysis of fish erythrocytes was utilized to screen for bioactive materials. Cultures and culture fractions that were positive in the hemolytic assay were tested further using assays for ichthyotoxicity and cytotoxicity.
# Blood was extracted from the caudal vein of rainbow trout (Oncorhynchus mykis) provided by the Center of Marine Biotechnology's Aquaculture Research Center. Needles were heparin (Sigma Chemical Co., St. Louis Mo.) treated and 10 units ml^−1 of additional heparin was added to whole blood samples to prevent clotting. […] Buffer pH was adjusted to 7.4 at 10° C. with 1N HCl, then filter sterilized (0.22 μm). […] Suspensions were stored at 4° C. for no longer than 10 days.
# Hemolytic assays were performed by diluting test material in Tris buffer +CaCl2 (100 μl total) and adding this to a 5% erythrocyte suspension (100 μl). […] Assays were incubated on an orbital shaker (80-100 rpm) at 20° C. for 1 hour. Plates were then centrifuged at 2500 g for 5 min. and the supernatant (100 μl) was transferred to another flat bottom 96 well polystyrene plate, where the absorbance of released hemoglobin was read at 540 nm. Saponin (10 μg) (from Quillaja bark; Sigma Chemical Co., St. Louis Mo.) was used as a positive hemolysin control All treatments were run in quadruplicate.
# LC50values and ranges were determined by Probit analysis (SPSS Base 10.0, SPSS Inc., Chicago Ill.).
# Blood was extracted from the caudal vein of rainbow trout (Oncorhynchus mykis). […] Buffer pH was adjusted to 7.4 at 10° C. with 1N HCl, then filter sterilized (0.22 um). […] Blood suspensions were stored at 4° C. for no longer than 10 days.
# Hemolysis assays were performed by diluting test material in Tris buFFer +CaCl2 (100 ul) and adding this to 100 ul of a 5% erythrocyte suspension for a total assay volume of 200 ul. […] Plates were incubated on an orbital shaker (80-100 rpm) at 20° C. for 1 hour. Plates were then centrifuged at 2000 g for 5 min. and the supernatant (100 ul) was transferred to a new flat bottom 96 well polystyrene plate, where the absorbance of released hemoglobin was read at 540 nm. Saponin (from Quillaja bark; Sigma Chemical Co., St. Louis Mo.) was used as a positive hemolysin control. Percent hemolysis (0-100%) was calculated from comparison to un-treated controls and samples treated with 10 ug saponin. All treatments were run in quadruplicate.
# Hemolytic LC50 values were calculated from a dilution series of KmTx 2 and amphotericin B. LC50 values and ranges were determined by Probit analysis using a SPSS Base 10.0 statistical software package (SPSS Inc., Chicago, Ill.).
# [3] = tested on: Aspergillus niger (ATCC 1004); assay: Anti-fungal broth microdilution assay (filamentous fungi); type: cell-based
# Protocol: (§1) The following fungal strains were purchased from the American Type Culture Collection (Manassas, Va.), Aspergillus niger (ATCC 1004) as a representative filamentous fungi, and Candida albicans (ATCC 14053) as a representative yeast. Assays were performed according to the following National Committee for Clinical Laboratory Standards documents; M27-A2 Reference Method for Broth Dilution Antifungal Susceptibility Testing of Yeasts; Approved Standard—Second Edition([NCCLS, 2002), and M38-A Reference Method for Broth Dilution Antifungal Susceptibility Testing of Filamentous Fungi; Approved Standard (NCCLS, 2002). Procedures for the broth microdilution modification were followed for both species with the following exceptions; A. niger stocks were maintained on Potato Dextrose Agar at 25° C., while C. albicans was maintained on Yeast Malt Agar at 28° C., both according to ATCC recommendations. Amphotericin B was used as a positive control. Microdilution assays were performed in HyQ-RPMI-1640 media (HyClone, Logan, Utah.), with 2.05 mM L-glutamine, without sodium bicarbonate, pH 7.2 using dilutions of 1 mg/ml DMSO stocks of KmTx 2 and amphotericin B.
# (§2) The following concentrations were tested for both KmTx2 and amphotericin B: 0.0625, 0.125, 0.25, 0.5, 1, 2, 4, 8, and 16 μg/ml. A maximum of 1.6% DMSO was added to any given well. Plates were incubated at 25 and 28° C., respectively, for A. niger and C. albicans. […] Amphotericin B and all culture media were purchased from Sigma-Aldrich (St. Louis, Mo.).
# [4] = tested on: Candida albicans (ATCC 14053); assay: Anti-fungal broth microdilution assay (yeast); type: cell-based
# Protocol: as §1, §2
# [5] = tested on: rainbow trout erythrocytes; assay: Membrane lipid inhibition assay of KmTx 2 hemolytic activity; type: cell-based; conditions: for inhibition of the hemolytic activity of KmTx 2 by co-incubation: 0.001-10 μM sterol or lipid, KmTx 2 0.1, 0.5, 1 μg/ml
# Protocol: To assess the inhibitory effects of exogenous membrane lipids on KmTx 2 hemolytic activity, the following sterols and lipids were tested: cholesterol, ergosterol, gymnodinosterol, and both natural and synthetic phosphatidylcholine. Cholesterol (5-cholesten-3β-ol) and L-α-phosphatidylcholine (brain, porcine) were purchased from Avanti Polar Lipids Inc. (Alabaster, Ala.); ergosterol (5,7,22-cholestatrien-24β-methyl-3β-ol) was purchased from Steraloids, Inc. (Newport, R.I.). Synthetic phosphatidylcholine (L-α-lecithin (β-γ-dipalmitoyl) was purchased from Calbiochem (San Diego, Calif.), Gymnodinosterol was isolated from filtered K. micrum (CCMP 2282) cells (isolation described in supplemental materials). KmTx 2: 0, 0.1, 0.5, and 1 μg/ml was added to solutions of Tris buffer +CaCl2 with either: 0, 0.001, 0.01, 0.1, 1 or 10 μM selected sterol or membrane lipid. Stock solutions of toxin and lipid were made in methanol and no more than 1% of each (2% total) was added to any given well. After brief mixing, these solutions were added 1: 1 with a diluted suspension of rainbow trout erythrocytes and hemolytic activity was assessed as described in supplemental materials.
# [6] = tested on: rat embryonic fibroblast (REF 52) cells; assay: Ion permeation measurement, Ca^2+ flux with fura-2 (fibroblasts); type: cell-based; conditions: 0.2 μM
# Protocol: The following cell types were tested for toxicity due to KmTx 2; rat embryonic fibroblast, rat intestional epithelial, and isolated rabbit primary sensory neurons. Cells were cultured on No. 1 glass coverslips and loaded with fluorescent indicator (fura-2) and were examined on an inverted epifluorescence microscope (model Diaphot; 40×CF Fluor objective, N.A. 1.30; Nikon Corp.) coupled to a spectrofluorometer (model CM1T10I, SPEX Industries) operating in the microfluorometry mode. Cells were bathed in 4 ml of Dulbecco's modified Eagle's medium (DMEM) buffered with HEPES (pH 7.4). KmTx 2 (stock solution in DMSO) was directly bath-applied with gentle convective mixing. Fura-2 was alternately excited at 340 and 380 nm. Fluorescence emission was passed through a 510-nm bandpass filter before photometric quantitation. DATAMAX software (SPEX Industries) was used for data acquisition and instrument control. Origin software (OriginLab Corp.) was used for data reduction and analysis
# [7] = any concentration (0.0625-16 μg/ml) after 24 hours
molecule,measurement,setting,value
"O.O.O=C([O-])CN(CCN(CC(=O)[O-])CC(=O)[O-])CC(=O)[O-].[Na+].[Na+].[Na+].[Na+] [EDTA, EDTA +4 Na·2 H2O]",free Cu chelated,"[1]; EDTA 2 mM, all concentrations tested",> 90%
same,% DECREASE of measured free copper,"[1]; copper 0.2 mg L^−1, EDTA 2 mM",96.3%
same,% DECREASE of measured free copper,"[1]; copper 1 mg L^−1, EDTA 2 mM",95.9%
same,% DECREASE of measured free copper,"[1]; copper 5 mg L^−1, EDTA 2 mM",90.4%
same,% DECREASE of measured free copper,"[1]; copper 20 mg L^−1, EDTA 2 mM",92.6%
same,effect of EDTA on hemolytic activity due to Cu alone,[2],completely remove hemolytic activity
"C[C@@H]1[C@H](O)[C@@H](C)/C=C/C=C/C=C/C=C/C=C/C=C/C=C/[C@H](O[C@@H]2O[C@H](C)[C@@H](O)[C@H](N)[C@@H]2O)C[C@@H]2O[C@](O)(C[C@@H](O)C[C@@H](O)[C@H](O)CC[C@@H](O)C[C@@H](O)CC(=O)O[C@H]1C)C[C@H](O)[C@H]2C(=O)O [amphotericin B, reference compound]",growth,[3]; [7],no growth was observed
same,Minimal inhibitory concentration (MIC),"[3]; lowest dose with no growth after 96 hours, 25° C.",0.5 µg/mL
same,hemolytic LC50,[2]; probit analysis of dilution series,3.759 µg/mL
same,growth,[4]; [7],no growth was observed
same,Minimal inhibitory concentration (MIC),"[4]; lowest dose with no growth after 96 hours, 28° C.",0.125 µg/mL
"CC(C)CCC[C@@H](C)[C@H]1CC[C@H]2[C@@H]3CC=C4C[C@@H](O)CC[C@]4(C)[C@H]3CC[C@]12C [cholesterol, 5-cholesten-3β-ol]",inhibition of the hemolytic activity of KmTx 2 by co-incubation,[5],inhibited
same,concentration at which complete inhibition was reached,[5]; co-incubation with KmTx 2,ca. 10 μM
"CC(C)[C@@H](C)/C=C/[C@@H](C)[C@H]1CC[C@H]2C3=CC=C4C[C@@H](O)CC[C@]4(C)[C@H]3CC[C@]12C [ergosterol, 5,7,22-cholestatrien-24β-methyl-3β-ol]",inhibition of the hemolytic activity of KmTx 2 by co-incubation,[5],inhibited
same,concentration at which inhibition plateaued,[5]; co-incubation with KmTx 2,ca. 1 μM
"CC(C)[C@H](C)C=C[C@@H](C)[C@H]1CCC2=C3CC[C@H]4[C@H](C)[C@@H](O)CC[C@]4(C)[C@H]3CC[C@@]21C [gymnodinosterol, (24S)-4α-methyl-5α-ergosta-8(14),22-dien-3β-ol]",inhibition of the hemolytic activity of KmTx 2 by co-incubation,[5],not inhibited
"CCCCCCCCCCCCCCCC(=O)OC[C@H](COP(=O)([O-])OCC[N+](C)(C)C)OC(=O)CCCCCCCCCCCCCCC [synthetic dipalmitoyl (16:0), L-α-lecithin (β-γ-dipalmitoyl)]",inhibition of the hemolytic activity of KmTx 2 by co-incubation,[5],no inhibition
"NC(=O)CC[C@@H]1NC(=O)[C@H](Cc2ccccc2)NC(=O)[C@H](Cc2ccc(O)cc2)NC(=O)[C@@H](N)CSSC[C@@H](C(=O)N2CCC[C@H]2C(=O)N[C@@H](CCCN=C(N)N)C(=O)NCC(N)=O)NC(=O)[C@H](CC(N)=O)NC1=O [vasopressin, reference compound]",cytosolic Ca^2+ levels,[6],spike in cytosolic Ca^2+ levels followed by rapid decline to level above baseline
"L-α-phosphatidylcholine (brain, porcine) [natural brain phosphotidylcholine]",inhibition of the hemolytic activity of KmTx 2 by co-incubation,[5],no inhibition
